From US6420362B1, “Azines containing the 5,6-di-hydro-(1,4,2) dioxazine-3-yl group and the use thereof as fungicides” (priority 1997, dated 2002)

Test: log P determination by HPLC (EEC Directive 79/831 Annex V. A8)
Assay type: physicochemical
Procedure: The log P values were determined in accordance with EEC Directive 79/831 Annex V. A8 by HPLC (gradient method, acetonitrile/0.1% strength aqueous phosphoric acid).

chromatographic logP | Structure (SMILES)
3.17 | CON=C(C)C(C)=NN=Cc1ccccc1C(=NOC)C1=NOCCO1 [Example 4, 3-({2-[(5,6-dihydro-[1,4,2]dioxazin-3-yl)-methoxyimino-methyl]-benzylidene}-hydrazono)-butan-2-one O-methyl oxime]
3.61 | CCON=C(C)C(C)=NN=Cc1ccccc1C(=NOC)C1=NOCCO1 [Example 17]

More lines, now with the values behind:

Structure (SMILES) | chromatographic logP
CON=C(C1=NOCCO1)c1ccccc1C=NN=C(C)c1cccc(C(F)(F)F)c1 [Example 1, (5,6-dihydro-[1,4,2]dioxazin-3-yl)-(2-{[1-(3-trifluoromethylphenyl)-ethylidene]-hydrazonomethyl}-phenyl)-methanone O-methyl oxime] | 3.8
CCC(=NOC)C(C)=NN=Cc1ccccc1/C(=N/OC)C1=NOCCO1 [Example 13] | 3.58
CON=C(C(C)=NN=Cc1ccccc1/C(=N/OC)C1=NOCCO1)C(C)C [Example 12] | 3.92
CON=C(C1=NOCCO1)c1ccccc1C=NN=C(C)c1ccc(C(F)(F)F)cc1 [Example 2, (5,6-dihydro-[1,4,2]dioxazin-3-yl)-(2-{[1-(4-trifluoromethylphenyl)-ethylidene]-hydrazonomethyl}-phenyl)-methanone O-methyl oxime] | 3.8
